Results published in patent US20060069132A1, “Azolecarboxamide herbicides” (priority 2004, published 2006).

How the values were obtained:
giant foxtail [1] = assay: Test A pre-/postemergence herbicide test; assay type: in vivo, Setaria faberi
Outline: (§1)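 Visual injury scores on a 0–100 scale (100 = complete control) taken about ten days post-treatment in greenhouse against untreated controls; dash means no result. Treatments: preemergence soil spray and postemergence spray to runoff on one- to two-leaf plants 2 to 10 cm tall, surfactant-containing formulation.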

morningglory = assay: Test A pre-/postemergence herbicide test; assay type: in vivo, Ipomoea spp.
Outline: as §1

redroot pigweed = assay: Test A pre-/postemergence herbicide test; assay type: in vivo, Amaranthus retroflexus
Outline: as §1

large crabgrass = assay: Test C pre-/postemergence herbicide test; assay type: in vivo, Digitaria sanguinalis
Outline: (§2)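 Visual ratings on a 0–100 scale (100 = complete control) made versus untreated controls after 12 to 14 greenhouse days. Test chemicals, formulated in surfactant-containing non-phytotoxic solvent, applied preemergence to planted seeds or postemergence to 1- to 4-leaf plants (2 to 18 cm).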

giant foxtail [2] = assay: Test C pre-/postemergence herbicide test; assay type: in vivo, Setaria faberi
Outline: as §2

goosegrass = assay: Test C pre-/postemergence herbicide test; assay type: in vivo, Eleusine indica
Outline: as §2

yellow nutsedge = assay: Test C pre-/postemergence herbicide test; assay type: in vivo, Cyperus esculentus
Outline: as §2

pigweed = assay: Test C pre-/postemergence herbicide test; assay type: in vivo, Amaranthus retroflexus
Outline: as §2

common ragweed = assay: Test C pre-/postemergence herbicide test; assay type: in vivo, Ambrosia elatior; parameters: key to Plant response rating, Ragweed: 0 = no effect, 100 = complete control
Outline: as §2

soybean = assay: Test C pre-/postemergence herbicide test; assay type: in vivo, Glycine max
Outline: as §2

velvetleaf = assay: Test C pre-/postemergence herbicide test; assay type: in vivo, Abutilon theophrasti
Outline: as §2

ducksalad = assay: Test C flooded paddy test; assay type: in vivo, Heteranthera limosa; settings: for Plant response rating, Ducksalad: 500 g ai/ha, visual rating after 12 to 14 days
barnyardgrass = assay: Test C flooded paddy test; assay type: in vivo, Echinochloa crus-galli; settings: for Plant response rating, Barnyardgrass: 500 g ai/ha, visual rating after 12 to 14 days
Outline: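 Visual rating, 0 (no effect) to 100 (complete control), vs. controls at 12–14 d in greenhouse. Postemergence: 1–4-leaf plants, 2–18 cm. Paddy: flooded, barnyardgrass at 2-leaf stage.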

[3] = Postemergence, 500 g ai/ha, 0 to 100 scale, 0 no effect, 100 complete control
[4] = Postemergence, 2000 g ai/ha, 0 to 100 scale, 0 no effect, 100 complete control
[5] = Preemergence, 500 g ai/ha, visual rating, 0 to 100 scale (0 no effect, 100 complete control)
[6] = Preemergence, 2000 g ai/ha, visual rating, 0 to 100 scale (0 no effect, 100 complete control)
[7] = 125 g ai/ha, scale 0 (no effect) to 100 (complete control), visual, 12 to 14 days, preemergence
[8] = 250 g ai/ha, scale 0 to 100 (0 no effect, 100 complete control), visual, 12 to 14 days, preemergence
[9] = Postemergence, 500 g ai/ha, scale 0 to 100
[10] = Postemergence, 250 g ai/ha, scale 0 to 100, 0 no effect, 100 complete control
[11] = Preemergence, 500 g ai/ha, scale 0 to 100, 0 no effect, 100 complete control
[12] = postemergence, 125 g ai/ha, scale 0 to 100
[13] = postemergence, 62 g ai/ha, scale 0 to 100
[14] = 62 g ai/ha, scale 0 to 100 (0 no effect, 100 complete control)
[15] = 125 g ai/ha, scale of 0 to 100, 0 is no effect, 100 is complete control
[16] = 250 g ai/ha, scale of 0 to 100, 0 is no effect, 100 is complete control
[17] = scale 0 to 100 (0 no effect, 100 complete control)
[18] = preemergence, 500 g ai/ha, visual injury, 0 to 100 scale (0 no effect, 100 complete control)
[19] = 62 g ai/ha, preemergence, scale 0 to 100
[20] = 250 g ai/ha, scale 0-100, preemergence
[21] = 500 g ai/ha, scale 0 to 100 (0 no effect, 100 complete control), visual, 12 to 14 days, preemergence
[22] = 125 g ai/ha, scale 0 to 100 (0 no effect, 100 complete control)

CCn1nc(C(C)(C)C)cc1C(=O)Nc1cccc(C(C)=NO)c1 [Compound 108]
Foxtail, Giant plant response rating (giant foxtail [1]; [3]): 90
Plant response rating, Foxtail, Giant (giant foxtail [1]; [4]): 100
Foxtail, Giant plant response rating (giant foxtail [1]; [5]): 95
Foxtail, Giant plant response rating (giant foxtail [1]; [6]): 100
Morningglory plant response rating (morningglory; [3]): 40
Plant response rating, Morningglory (morningglory; [4]): 40
Morningglory plant response rating (morningglory; [5]): 30
Morningglory plant response rating (morningglory; [6]): 75
Pigweed plant response rating (redroot pigweed; [3]): 100
Plant response rating, Pigweed (redroot pigweed; [4]): 100
Pigweed plant response rating (redroot pigweed; [5]): 100
Pigweed plant response rating (redroot pigweed; [6]): 100
Plant response rating (0 = no effect, 100 = complete control), Crabgrass, Large (large crabgrass; 62 g ai/ha, preemergence): 100
Plant response rating, Crabgrass, Large (large crabgrass; [7]): 100
Plant response rating, Crabgrass, Large (large crabgrass; [8]): 100
Crabgrass, Large plant response rating (large crabgrass; [9]): 100
Plant response rating, Crabgrass, Large (large crabgrass; [10]): 70
Crabgrass, Large plant response rating (large crabgrass; [11]): 100
Plant response rating, Crabgrass, Large (large crabgrass; [12]): 70
Plant response rating, Crabgrass, Large (large crabgrass; [13]): 10
Plant response rating (0 = no effect, 100 = complete control), Foxtail, Giant (giant foxtail [2]; 62 g ai/ha, preemergence): 100
Plant response rating, Foxtail, Giant (giant foxtail [2]; [7]): 100
Plant response rating, Foxtail, Giant (giant foxtail [2]; [8]): 100
Foxtail, Giant plant response rating (giant foxtail [2]; [9]): 70
Foxtail, Giant plant response rating (giant foxtail [2]; [11]): 100
Plant response rating, Foxtail, Giant (giant foxtail [2]; [12]): 50
Plant response rating, Foxtail, Giant (giant foxtail [2]; [13]): 30
Plant response rating (0 = no effect, 100 = complete control), Goosegrass (goosegrass; 62 g ai/ha, preemergence): 90
Plant response rating, Goosegrass (goosegrass; [7]): 100
Goosegrass plant response rating (goosegrass; [9]): 70
Plant response rating, Goosegrass (goosegrass; [10]): 70
Goosegrass plant response rating (goosegrass; [11]): 100
Plant response rating, Goosegrass (goosegrass; [12]): 40
Plant response rating, Goosegrass (goosegrass; [13]): 20
Plant response rating (0 = no effect, 100 = complete control), Nutsedge, Yellow (yellow nutsedge; 62 g ai/ha, preemergence): 50
Plant response rating, Nutsedge, Yellow (yellow nutsedge; [7]): 70
Nutsedge, Yellow plant response rating (yellow nutsedge; [9]): 30
Plant response rating, Nutsedge, Yellow (yellow nutsedge; [10]): 30
Nutsedge, Yellow plant response rating (yellow nutsedge; [11]): 80
Plant response rating, Nutsedge, Yellow (yellow nutsedge; [12]): 30
Plant response rating, Nutsedge, Yellow (yellow nutsedge; [13]): 20
Plant response rating (0 = no effect, 100 = complete control), Pigweed (pigweed; 62 g ai/ha, preemergence): 100
Plant response rating, Pigweed (pigweed; [7]): 100
Pigweed plant response rating (pigweed; [9]): 100
Plant response rating, Pigweed (pigweed; [10]): 100
Pigweed plant response rating (pigweed; [11]): 100
Plant response rating, Pigweed (pigweed; [12]): 100
Plant response rating, Pigweed (pigweed; [13]): 60
Plant response rating (0 = no effect, 100 = complete control), Ragweed (common ragweed; 62 g ai/ha, preemergence): 20
Plant response rating, Ragweed (common ragweed; [7]): 20
Ragweed plant response rating (common ragweed; [11]): 90
Plant response rating, Soybean (soybean; [7]): 0
Soybean plant response rating (soybean; [9]): 60
Plant response rating, Soybean (soybean; [10]): 60
Soybean plant response rating (soybean; [11]): 10
Plant response rating, Soybean (soybean; [12]): 60
Plant response rating, Soybean (soybean; [13]): 50
Plant response rating, Velvetleaf (velvetleaf; [7]): 90
Velvetleaf plant response rating (velvetleaf; [9]): 90
Plant response rating, Velvetleaf (velvetleaf; [10]): 80
Velvetleaf plant response rating (velvetleaf; [11]): 100
Plant response rating, Velvetleaf (velvetleaf; [12]): 60
Plant response rating, Velvetleaf (velvetleaf; [13]): 40
Ducksalad plant response rating (ducksalad; [14]): 50
Ducksalad plant response rating (ducksalad; [15]): 70
Ducksalad plant response rating (ducksalad; [16]): 80
Plant response rating, Ducksalad (ducksalad; [17]): 90
Barnyardgrass plant response rating (barnyardgrass; [14]): 30
Barnyardgrass plant response rating (barnyardgrass; [15]): 40
Barnyardgrass plant response rating (barnyardgrass; [16]): 60
Plant response rating, Barnyardgrass (barnyardgrass; [17]): 70

CCn1nc(C(C)(C)C)cc1C(=O)Nc1cncc(C(=O)N(C)C)n1 [Compound 287]
Foxtail, Giant plant response rating (giant foxtail [1]; [3]): 40
Plant response rating, Foxtail, Giant (giant foxtail [1]; [4]): 90
Foxtail, Giant plant response rating (giant foxtail [1]; [6]): 100
Foxtail, Giant plant response rating (giant foxtail [1]; [18]): 65
Morningglory plant response rating (morningglory; [3]): 20
Plant response rating, Morningglory (morningglory; [4]): 15
Morningglory plant response rating (morningglory; [6]): 50
Morningglory plant response rating (morningglory; [18]): 10
Pigweed plant response rating (redroot pigweed; [3]): 50
Plant response rating, Pigweed (redroot pigweed; [4]): 80
Pigweed plant response rating (redroot pigweed; [6]): 100
Pigweed plant response rating (redroot pigweed; [18]): 100
Plant response rating, Crabgrass, Large (large crabgrass; [19]): 65
Plant response rating, Crabgrass, Large (large crabgrass; [7]): 95
Plant response rating, Crabgrass, Large (large crabgrass; [20]): 95
Plant response rating, Crabgrass, Large (large crabgrass; [21]): 100
Plant response rating, Foxtail, Giant (giant foxtail [2]; [19]): 0
Plant response rating, Foxtail, Giant (giant foxtail [2]; [7]): 70
Plant response rating, Foxtail, Giant (giant foxtail [2]; [20]): 85
Plant response rating, Foxtail, Giant (giant foxtail [2]; [21]): 100
Plant response rating, Goosegrass (goosegrass; [19]): 70
Plant response rating, Goosegrass (goosegrass; [7]): 100
Plant response rating, Goosegrass (goosegrass; [20]): 100
Plant response rating, Goosegrass (goosegrass; [21]): 100
Plant response rating, Nutsedge, Yellow (yellow nutsedge; [19]): 0
Plant response rating, Nutsedge, Yellow (yellow nutsedge; [7]): 15
Plant response rating, Nutsedge, Yellow (yellow nutsedge; [20]): 60
Plant response rating, Nutsedge, Yellow (yellow nutsedge; [21]): 85
Plant response rating, Pigweed (pigweed; [19]): 100
Plant response rating, Pigweed (pigweed; [7]): 100
Plant response rating, Pigweed (pigweed; [20]): 100
Plant response rating, Pigweed (pigweed; [21]): 100
Plant response rating, Ragweed (common ragweed; [19]): 100
Plant response rating, Ragweed (common ragweed; [20]): 100
Plant response rating, Ragweed (common ragweed; [21]): 100
Plant response rating, Soybean (soybean; [19]): 0
Plant response rating, Soybean (soybean; [20]): 85
Plant response rating, Soybean (soybean; [21]): 95
Plant response rating, Velvetleaf (velvetleaf; [19]): 40
Plant response rating, Velvetleaf (velvetleaf; [20]): 100
Plant response rating, Velvetleaf (velvetleaf; [21]): 100
Ducksalad plant response rating (ducksalad; 62 g ai/ha, scale 0 to 100): 0
Ducksalad plant response rating (ducksalad; [22]): 30
Ducksalad plant response rating (ducksalad; [16]): 40
Plant response rating, Ducksalad (ducksalad; [17]): 45
Barnyardgrass plant response rating (barnyardgrass; [14]): 0
Barnyardgrass plant response rating (barnyardgrass; [22]): 0
Barnyardgrass plant response rating (barnyardgrass; [16]): 0
Plant response rating, Barnyardgrass (barnyardgrass; [17]): 25
